We go through 1 molecule from patent US7745390B2, “Antimicrobial peptides” (priority 2005, dated 2010).

One experiment concerns bacteria. Nature of the experiment: Activity in DMEM and RPMI media (lysis of bacteria). The class given is cell-based. The conditions noted are these: either 10 mM phosphate buffer or DMEM. The procedure:
The CFU assay is the “gold standard” for evaluating antibiotics. Briefly, bacteria are grown overnight in rich medium, such as LB, and then diluted and grown in log phase for 2-4 hours. Cultures are set up as above, with the initial culture media being 10 mM phosphate buffer/0.03% LB; DMEM or RPMI; or DMEM or RPMI plus 10% serum (fetal calf, human, or mouse). After various periods of time, but generally 3 hours or less, aliquots are removed, diluted in LB at various dilutions, and plated on LB agar plates. Plates are incubated overnight at 37° C. and counted on an automatic colony counter.
In the column “Active in DMEM”, a blank means no activity. MAP stands for multiple antigenic peptide, where a number of identical peptide chains are synthesized and joined to a common core (like a dendrimer).
The peptides listed in Table 2 were tested in DMEM and RPMI, media that approximate blood and tissue conditions in vivo and those that were active under these conditions are listed in the last column (active in DMEM). […] No peptides that were all L-isomer peptides lysed bacteria in DMEM supplemented with serum.
The hydrophobic moment is a measure of amphipathicity and indicates how well the hydrophobic residues fall on one side of the helix while the hydrophilic residues fall on the opposite side is shown in column 7. This was determined using the Membrane Explorer Program (http://blanco.biomol.uci.edu/mpex/). A high number indicates a high hydrophobic moment. Column 8 again (like Table 2) indicates which of these peptides is active in DMEM.

A further experiment has as its system S. aureus. Nature of the experiment: Mouse wound model of luminescent S. aureus infection. Format: in vivo, BALB/c mice. The text has this: In this protocol, BALB/c mice of 4-6 weeks of age were exposed to wounds on their backs, then inoculated with an infection of S. aureus, which had 10^5 cfu per pocket (2×10^7 […] DMEM) The S. aureus had been transfected with a plasmid containing luciferase as well as the substrate for luciferase. Using a special camera, light is detected from living bacteria in the wound. The light intensity is converted to a color scale. Controls received no peptide, and the treatment group received peptide at the indicated dose. Animals were imaged at 1, 3, 6 and 24 hrs.

Square brackets hold non-standard residues; d marks the D form. Peptide text beside a SMILES is read from it.

In the case of `CSCC[C@H](NC(=O)[C@H](Cc1ccccc1)NC(=O)[C@@H](CCCNC(=N)N)NC(=O)[C@@H](CCCNC(=N)N)NC(=O)[C@H](CO)NC(=O)[C@@H](NC(=O)[C@@H](CCCNC(=N)N)NC(=O)[C@@H](CCCNC(=N)N)NC(=O)[C@@H](CCCNC(=N)N)NC(=O)[C@@H](CCCNC(=N)N)NC(=O)[C@@H](CCCNC(=N)N)NC(=O)[C@@H](CCCNC(=N)N)NC(=O)[C@H](N)CCCNC(=N)N)C(C)C)C(=O)N[C@H](CCCNC(=N)N)C(=O)N[C@H](CCCNC(=N)N)C(=O)O` [Peptide G11.46, rrrrrrrVSrrFMrr] (H-[dR][dR][dR][dR][dR][dR][dR]VS[dR][dR]FM[dR][dR]-OH; N-terminus and C-terminus assumed), in the experiment on bacteria, the “lysis of bacteria and fungi” value is “lyse both gram negative bacteria and gram negative bacteria, as well as fungi”. Further, the “light units from S. aureus in wound” value with S. aureus (25 μg and 100 μg, data not shown) is “significant reduction in light units”; in the experiment on S. aureus (100 μg, after 6 hrs.), “light units approached levels obtained with the blank”. In the experiment on S. aureus (by 24 hours), the recovery of bacteria entry is “some recovery of bacteria by 24 hours”.
